Assay results: US7470781B2, “Formulation of stabilized cationic transfection agent(s)/nucleic acid particles” (Aventis Pharma S.A., priority 1997, dated 2008)

Columns and labels:
[1] = Structure of complexes by low-angle X-ray diffraction and cryo-transmission electron microscopy; assay type: physicochemical
Protocol: The cryo-transmission electron microscopy (cryo-TEM) experiments are carried out with 7 μl of prepared samples containing 0.5 mg of DNA/ml, which are placed on a carbon-coated copper grid covered with a membrane with holes. The grids are then immersed in liquid ethane so as to convert the liquid water to vitrified water. Next, this grid is installed inside a specimen holder cooled with liquid nitrogen and introduced into the microscope (Philips CM12) for visualization.
The low-angle X-ray diffraction experiments are carried out in the synchrotron (LURE) in Orsay (France) on the D43 line. The samples are prepared at 0.5 mg DNA/ml and then centrifuged. The pellets are deposited in a cell in which the two windows consist of kapton. A germanium-containing monochromator (111 reflection) allows the selection of the wavelength of 0.138 nm.
In this study, we have determined, by low-angle X-ray diffraction and by transmission electron microscopy, the structure of the cationic lipid transfectant/DNA complexes.

[2] = Size (hydrodynamic diameter) of cationic lipid/DNA complexes by photon correlation spectroscopy; assay type: physicochemical; conditions: component alone incubated with 1% (weight/volume) poloxalkol
Protocol: The measurement of the hydrodynamic diameter is carried out with a Coulter N4Plus, using plastic cells (four transparent faces) filled with 800 μl of the various solutions, the measurement being carried out at […] in unimodal mode.
The plasmid (10 μg/ml) is placed in a solution containing 150 mM NaCl and various concentrations of poloxalkol. The lipofectant RPR 120535 is then added in order to obtain a charge ratio (+/−) 2.5. The size of the complexes is then measured by photon correlation spectroscopy according to the procedure described in Methods.
The plasmid (10 μg/ml) is placed in a solution containing 150 mM NaCl at various concentrations of poloxalkol. RPR 120531 is then added in order to obtain a charge ratio (+/−) 2.5. The size of the complexes is measured by photon correlation spectroscopy (Coulter N4plus).
Table V below represents the diameter, in nm, of the RPR 120535/DNA complexes, at the charge ratio of 2.75 (+/−) and containing 0.25 mg of DNA/ml in 150 mM NaCl, stabilized with various nonionic surface-active agents.

mice = experiment: Transfection in vivo after systemic injection, luciferase activity in organs; set-up: unit not given here; conditions: balbc mouse, 24 hours after tail vein injection
Protocol: The in vivo transfections are carried out by injecting, into the vein of the tail of 30-day-old mice, 200 μl of a solution containing 0.2 mg DNA/ml combined with a cationic lipid vector. 24 hours after the injection, the mice are humanely killed and then various organs are recovered (lung, liver, heart, kidney, spleen). These organs are then ground in a lysis buffer with the aid of an Ultraturax. The ground products obtained are then centrifuged, and then 10 μl of the supernatant is collected in order to assay the luciferase activity.
We compared the gene transfer efficiencies after systemic injections of precipitated RPR 120535/DNA complexes, and of these same complexes stabilized by the addition of Pluronic F68®. […] On the other hand, when the particles are colloidally stabilized by the addition of F68®, the luciferase activity is increased by a factor of 10 in the lungs, and expression is observed in other tissues (liver, heart).
Identical experiments to those described above were carried out using another lipid: BGTC. Similar results were obtained, namely an improvement in gene transfer in the lungs and a measurable expression in the liver, the heart and the kidneys. […] Indeed, given that nonviral lipid vectors are used, these complexes might have been expected to be destabilized by the presence of these endogenous lipids in a large quantity. The results of in vivo transfection of BGTC/DOPE/DNA complexes in the absence or in the presence of poloxalkol are assembled in Table IV below: […]

| periodicity of lamellar structure ([1]; in the absence and in the presence of poloxalkol) | size of complexes ([1]; presence of poloxalkol) | particles detectable by Quasi-Elastic Diffusion of light [2] | SMILES | luciferase activity, Heart (mice; 0% F68) | luciferase activity, Kidneys (mice; 0% F68) | luciferase activity, Liver (mice; 0% F68) | luciferase activity, Lungs (mice; 0% F68) | luciferase activity, Heart (mice; 10% F68) | luciferase activity, Kidneys (mice; 10% F68) | luciferase activity, Liver (mice; 10% F68) | luciferase activity, Lungs (mice; 10% F68) |
| --- | --- | --- | --- | --- | --- | --- | --- | --- | --- | --- | --- |
| 6.5 nm | small-sized complexes |  | CC(C)CCC[C@@H](C)[C@H]1CC[C@H]2[C@@H]3CC=C4C[C@@H](OC(=O)NCCN(CCN=C(N)N)CCN=C(N)N)CC[C@]4(C)[C@H]3CC[C@]12C [BGTC] |  |  |  |  |  |  |  |  |
|  |  | does not form particles | CCCCCCCCCCCCCCCCCCN(CCCCCCCCCCCCCCCCCC)C(=O)CNC(=O)CNCCCNCCCCNCCCN [RPR 120535, H2N(CH2)3NH(CH2)4NH (CH2)3NHCH2COGlyN[(CH2)17CH3]2] | 0 | 0 | 0 | 2 ± 0.9 | 1 ± 0.4 | 0 | 2 ± 3 | 14 ± 0.9 |
